Results from patent US11351168B1 (Celgene CAR LLC, priority 2008, dated 2022).

tested on: BTK signaling in Ramos cells; assay: BTK Ramos cellular assay (phosphorylation of BTK substrate PLCγ2); assay type: cell-based, human; details: Homo sapiens, 1 hour compound, anti-IgM stimulation, read-out: BTK Inhibition (Ramos cellular)
Protocol: Compounds I-2, I-4, and I-7 were assayed in Ramos human Burkitt lymphoma cells. Ramos cells were grown in suspension in T225 flasks, spun down, resuspended in 50 ml serum-free media and incubated for 1 hour. Compound was added to Ramos cells in serum free media to a final concentration of 1, 0.1, 0.01, or 0.001 μM. Ramos cells were incubated with compound for 1 hour, washed again and resuspended in 100 ul serum-free media. Cells were then stimulated with 1 μg of goat F(ab′)2 Anti-Human IgM and incubated on ice for 10 minutes to activate B cell receptor signaling pathways. After 10 minutes, the cells were washed once with PBS and then lysed on ice with Invitrogen Cell Extraction buffer. 16 μg total protein from lysates were loaded on gel and blots were probed for phosphorylation of the BTK substrate PLCγ2.

| Structure (SMILES) | IC50 [nM] |
| --- | --- |
| C=CC(=O)Nc1cccc(Nc2nc(Nc3ccc4c(c3)N(C(=O)C(F)(F)F)CCO4)ncc2F)c1 [Compound I-143, N-(3-(2-(4-trifluoroacetyl-2,3-dihydrobenzo[1,4]oxazin-6-yl)amino-5-fluoropyrimidin-4-ylamino)phenyl)acrylamide] | < 10 |
| C=CC(=O)Nc1cccc(Nc2nc(Nc3ccc(N(C)CCOC)nc3)ncc2F)c1 [Compound I-77, N-(3-(5-fluoro-2-(6-((2-methoxyethyl)(methyl)amino)pyridin-3-ylamino)pyrimidin-4-ylamino)phenyl)acrylamide] | < 10 |
| C=CC(=O)N1CCC(Nc2nc(Nc3cccc(OC)c3)ncc2F)C1 (stereo not drawn) [Compound I-201, 1-(3-(5-fluoro-2-(3-methoxyphenylamino)pyrimidin-4-ylamino)pyrrolidin-1-yl)prop-2-en-1-one] | 100 to 1000 |
| C=CC(=O)Nc1cc(Nc2nc(Nc3ccc(OCCOC)cc3)ncc2F)ccc1F [Compound I-87, N-(2-fluoro-5-(5-fluoro-2-(4-(2-methoxyethoxy)phenylamino)pyrimidin-4-ylamino)phenyl)acrylamide] | < 10 |
| C=CC(=O)N1CCOc2ccc(Nc3nc(Nc4ccc(OC)nc4)ncc3C(C)=O)cc21 [Compound I-170, 1-{6-[5-Acetyl-2-(6-methoxy-pyridin-3-ylamino)-pyrimidin-4-ylamino]-2,3-dihydro-benzo[1,4]oxazin-4-yl}-propenone] | 10 to 100 |
| C=CC(=O)Nc1cccc(Nc2nc(Nc3ccc4c(cnn4C(=O)OC(C)(C)C)c3)ncc2F)c1 [Compound I-151] | < 10 |
| C=CC(=O)Nc1cccc(Nc2nc(Nc3ccc(OCCCS(C)(=O)=O)c(F)c3)ncc2F)c1 [Compound I-318, N-(3-(5-fluoro-2-(3-fluoro-4-(3-(methylsulfonyl)propoxy)phenylamino)pyrimidin-4-ylamino)phenyl)acrylamide] | < 10 |
| C=CC(=O)Nc1cccc(Nc2nc(Nc3cccc(OCCN(C)C)c3)ncc2F)c1 [Compound I-233, N-(3-(2-(3-(2-(dimethylamino)ethoxy)phenylamino)-5-fluoropyrimidin-4-ylamino)phenyl)acrylamide] | < 10 |
| C=CC(=O)Nc1cccc(Nc2nc(Nc3cccc(OCCCN4CCOCC4)c3)ncc2F)c1 [Compound I-208, N-(3-(5-fluoro-2-(3-(3-morpholinopropoxy)phenylamino)pyrimidin-4-ylamino)phenyl)acrylamide] | 10 to 100 |
| C=CC(=O)N1CCC[C@@H](Oc2nc(Nc3cccc(OC)c3)ncc2F)C1 [Compound I-190, (R)-1-(3-(5-fluoro-2-(3-methoxyphenylamino)pyrimidin-4-yloxy)piperidin-1-yl)prop-2-en-1-one] | 10 to 100 |
| C=CC(=O)Nc1cccc(Nc2nc(Nc3cccc(OCC(=O)N4CCOCC4)c3)ncc2F)c1 [Compound I-110, N-(3-(5-fluoro-2-(3-(2-morpholino-2-oxoethoxy)phenylamino)pyrimidin-4-ylamino)phenyl)acrylamide] | 10 to 100 |
| C=CC(=O)Nc1cccc(Nc2nc(Nc3ccc(OC)nc3)ncc2OC)c1 [Compound I-192, N-(3-(5-methoxy-2-(6-methoxypyridin-3-ylamino)pyrimidin-4-ylamino)phenyl)acrylamide] | 10 to 100 |
| C=CC(=O)Nc1cccc(Nc2nc(Nc3ccc(Cl)c(OCC(C)(C)O)c3)ncc2F)c1 [Compound I-249, N-(3-(2-(4-chloro-3-(2-hydroxy-2-methylpropoxy)phenylamino)-5-fluoropyrimidin-4-ylamino)phenyl)acrylamide] | < 10 |
| C=CC(=O)Nc1cccc(Oc2nc(Nc3cccc(OC)c3)ncc2C(N)=O)c1 [Compound I-178, 4-(3-acrylamidophenoxy)-2-(3-methoxyphenylamino)pyrimidine-5-carboxylic acid amide] | 10 to 100 |
| C=CC(=O)Nc1cccc(Oc2nc(Nc3ccc(OC)nc3)ncc2C)c1 [Compound I-186, N-(3-(2-(6-methoxypyridin-3-ylamino)-5-methylpyrimidin-4-yloxy)phenyl)acrylamide] | < 10 |
| C=CC(=O)N(C)Cc1cccc(Nc2nc(Nc3ccccc3)ncc2C)c1 [Compound I-220, N-methyl-N-(3-(5-methyl-2-(phenylamino)pyrimidin-4-ylamino)benzyl)acrylamide] | 10 to 100 |
| C=CC(=O)Nc1cccc(Nc2nc(Nc3ccc4[nH]ncc4c3)ncc2F)c1 [Compound I-156] | < 10 |
| C=CC(=O)N1CCC[C@@H](Nc2nc(Nc3cccc(Cl)c3)ncc2F)C1 [Compound I-147, (R)-1-(3-(2-(3-chlorophenylamino)-5-fluoropyrimidin-4-ylamino)piperidin-1-yl)prop-2-en-1-one] | 10 to 100 |

| Structure (SMILES) | IC50 [nM] |
| --- | --- |
| C=CC(=O)N1CCC[C@@H](Nc2nc(Nc3cccc(OCCN4CCOCC4)c3)ncc2F)C1 [Compound I-135, (R)-1-(3-(5-fluoro-2-(3-(2-morpholinoethoxy)phenylamino)pyrimidin-4-ylamino)piperidin-1-yl)prop-2-en-1-one] | 10 to 100 |
| C=CC(=O)Nc1cccc(Oc2nc(Nc3cccc(OC)c3)ncc2C(=O)NC2CC2)c1 [Compound I-177, 4-(3-acrylamidophenoxy)-2-(3-methoxyphenylamino)-pyrimidine-5-carboxylic acid cyclopropylamide] | 100 to 1000 |
| C=CC(=O)N(C)Cc1ccc(Nc2nc(Nc3ccc(OC)nc3)ncc2F)cc1 [Compound I-114, N-(4-(5-fluoro-2-(6-methoxypyridin-3-ylamino)pyrimidin-4-ylamino)benzyl)-N-methylacrylamide] | 10 to 100 |
| C=CC(=O)Nc1cccc(Nc2nc(Nc3ccc(OC(C)C)nc3)ncc2F)c1 [Compound I-172, N-(3-(5-fluoro-2-(6-isopropoxypyridin-3-ylamino)pyrimidin-4-ylamino)phenyl)acrylamide] | < 10 |
| C=CC(=O)N1CCc2cc(Nc3nc(Nc4cccc(S(N)(=O)=O)c4)ncc3C)ccc2C1 [Compound I-40, 3-(4-(2-acryloyl-1,2,3,4-tetrahydroisoquinolin-6-ylamino)-5-methylpyrimidin-2-ylamino)benzenesulfonamide] | 10 to 100 |
| C=CC(=O)Nc1cccc(Nc2nc(Nc3ccccc3)ncc2C(F)(F)F)c1 [Compound I-245, N-(3-(5-trifluoromethyl-2-(phenylamino)pyrimidin-4-ylamino)phenyl)acrylamide] | < 10 |
| C=CC(=O)Nc1cccc(Nc2nc(Nc3cccc(OCCCS(C)(=O)=O)c3)ncc2F)c1 [Compound I-138, 4-(3-acrylamidophenylamino)-5-fluoro-2-(3-(3-(methylsulfonyl)propoxy)phenylamino)-pyrimidine] | < 10 |
| C=CC(=O)Nc1cccc(Oc2nc(Nc3ccc(OC)nc3)ncc2C(=O)Nc2ccccc2)c1 [Compound I-159, 4-(3-acrylamidophenoxy)-2-(6-methoxypyridin-3-ylamino)-pyrimidine-5-carboxylic acid phenylamide] | 100 to 1000 |
| C=CC(=O)N1CCOc2ccc(Nc3nc(Nc4ccc(N(C)C(=O)C(F)(F)F)nc4)ncc3C(C)=O)cc21 [Compound I-142, N-(5-(5-acetyl-4-(4-acryloyl-3,4-dihydro-2H-benzo[b][1,4]oxazin-6-ylamino)pyrimidin-2-ylamino)pyridin-2-yl)-2,2,2-trifluoro-N-methylacetamide] | 10 to 100 |
| COc1ccc(Nc2ncc(F)c(Nc3cccc(NC(=O)/C=C/CN(C)C)c3)n2)cn1 [Compound I-125, (E)-4-(dimethylamino)-N-(3-(5-fluoro-2-(6-methoxypyridin-3-ylamino)pyrimidin-4-ylamino)phenyl)but-2-enamide] | 10 to 100 |
| C=CC(=O)N1CCOc2ccc(Nc3nc(Nc4ccc(N5CCOCC5)nc4)ncc3C(C)=O)cc21 [Compound I-168, 1-{6-[5-Acetyl-2-(6-morpholin-4-yl-pyridin-3-ylamino)-pyrimidin-4-ylamino]-2,3-dihydro-benzo[1,4]oxazin-4-yl}-propenone] | 10 to 100 |
| C=CC(=O)Nc1cccc(Nc2nc(Nc3ccc(O[C@@H]4CCOC4)c(F)c3)ncc2F)c1 [Compound I-316, (R)—N-(3-(5-fluoro-2-(3-fluoro-4-(tetrahydrofuran-3-yloxy)phenylamino)pyrimidin-4-ylamino)phenyl)acrylamide] | < 10 |
| C=CC(=O)Nc1cccc(Nc2nc(Nc3ccc(OC)nc3)ncc2C2CC2)c1 [Compound I-167, N-(3-(5-cyclopropyl-2-(6-methoxypyridin-3-ylamino)pyrimidin-4-ylamino)phenyl)acrylamide] | 10 to 100 |
| C=CC(=O)Nc1cccc(Nc2nc(Nc3ccc(OCCO)nc3)ncc2C(C)=O)c1 [Compound I-121, N-(3-{5-Acetyl-2-[6-(2-hydroxy-ethoxy)-pyridin-3-ylamino]-pyrimidin-4-ylamino}-phenyl)-acrylamide] | 10 to 100 |
| C=CC(=O)N1CCOc2ccc(Nc3nc(Nc4ccc5c(c4)CC(=O)N5)ncc3C(C)=O)cc21 [Compound I-129, 5-[5-Acetyl-4-(4-acryloyl-3,4-dihydro-2H-benzo[1,4]oxazin-6-ylamino)-pyrimidin-2-ylamino]-1,3-dihydro-indol-2-one] | < 10 |
| C=CC(=O)Nc1cccc(Nc2nc(Nc3ccc(OCC(C)(C)O)nc3)ncc2F)c1 [Compound I-313, N-(3-(5-fluoro-2-(6-(2-hydroxy-2-methylpropoxy)pyridin-3-ylamino)pyrimidin-4-ylamino)phenyl)acrylamide] | < 10 |
| C=CC(=O)N1CCC[C@@H](Oc2nc(Nc3ccc(OC)nc3)ncc2F)C1 [Compound I-180, (R)-1-(3-(5-fluoro-2-(6-methoxypyridin-3-ylamino)pyrimidin-4-yloxy)piperidin-1-yl)prop-2-en-1-one] | 100 to 1000 |
| C=CC(=O)Nc1cccc(Nc2ncc(F)c(Nc3cccc(C)c3)n2)c1 [Compound I-3, N-(3-(5-fluoro-4-(m-tolylamino)pyrimidin-2-ylamino)phenyl) acrylamide] | 10 to 100 |
